Experiments:
[1] = tested on: harmaline model of Essential Tremor; test: Harmaline model of Essential Tremor, subjective tremor score 0-4 (Example 3; DS = DS-D); type: in vivo, rat; conditions: Propranolol 40 mg/kg i.p.
Method: All experiments were carried out in male Sprague Dawley rats (˜250 g). Naïve rats were acclimatised to the procedure room in their home cages up to 7 days following arrival at the test facility, with food and water available ad libitum. All animals were weighed at the beginning of the study and assigned to treatment groups (Vehicle n=6, treatment groups n=12/group).
Animals were dosed and tested as per Table G below, across 3 test days. Treatment groups were equally allocated across the 3 days of testing. The animals received either vehicle, DS at 30, 100 or 150 mg/kg (1 mL/kg, i.p.) or propranolol at 40 mg/kg (5 mL/kg, i.p.) (Compound 1), the animals were then dosed with vehicle or Harmaline at 10 mg/kg (5 mL/kg, i.p.) (Compound 2). The animals received DS at 30, 100 or 150 mg/kg (1 mL/kg, i.p.) 40 or 100 min before harmaline, with the first test point 20 mins later to give a pre-treatment time at first test point of 60 and 120 mins. Propanolol was dosed 30 min before harmaline and tested 20, 40 and 60 mins post-harmaline. At all test points post-harmaline, the animals were observed and given a tremor score of 0-4 (as per Table H).
Drug substance (i.e., DS-D, as described in Example 1) was formulated in 1:12:87 Ethanol, Kolliphor HS & Saline.
Propranolol (40 mg/kg i.p.) served as a disease-relevant comparator.
30 mg/kg drug substance required 1 hr pre-treatment whilst 100 and 150 mg/kg drug substance required 2 hr pre-treatment.
Behavioural observation data was analysed using a repeated measures two-way ANOVA followed by Dunnett's multiple comparison analysis (GraphPad, Prism v9.0.0) (p<0.05 considered significant).

[2] = tested on: valproic acid-induced autism spectrum disorder (ASD) mouse model; test: Valproic acid-induced ASD model, autism-like behaviors, DS vs sCBD and risperidone (Example 6, Table P); type: in vivo; set-up: key to Adult open field hyperactivity (spontaneous LMA on day 1) / Adult open field hyperactivity (LMA on day 2) / Adult marble burying / Adult grooming / Juvenile vocalisation: +: improvement; Ø: no change; −: not tested
From the text: (§1) The main objective of the following study was to assess the effect of the drug substance (DS) of Example 1 in ameliorating autism-like behavior in valproic acid-induced autism spectrum disorder (ASD) mouse model (FIGS. 19A-B).

[3] = tested on: rat model of essential tremor; test: Harmaline rat model of essential tremor, observed tremor score (Example 4); type: in vivo; set-up: key to Observed tremor score, significance vs harmaline + vehicle: ns = not significant; *, **, ***, **** = statistical significance at p < 0.05, 0.01, 0.001, 0.0001 respectively; *, **, ***, **** = statistical significance at p < 0.05, 0.01, 0.001, 0.0001 respectively; *, **, ***, **** = statistical significance at p < 0.05, 0.01, 0.001, 0.0001 respectively; *, **, ***, **** = statistical significance at p < 0.05, 0.01, 0.001, 0.0001 respectively; conditions: for Observed tremor score, significance vs harmaline + vehicle: I.P.
From the text: (§2) The following study was designed to assess the drug substance (DS) efficacy in the rat model of essential tremor. Synthetic CBD (sCBD I.P.) and DS I.P. and DS. P.O and compared observing tremor score, motion power percentage (MPP), tremor index (TI), number of tremors, total time spent in tremor, and average tremor length.
(§3) The results are summarized in Tables J-M. All comparisons were made to the harmaline+vehicle group within each study.

[4] = tested on: valproic acid-induced autism spectrum disorder (ASD) mouse model; test: Valproic acid-induced ASD model, social behavior (Example 6, Table P); type: in vivo; set-up: key: +: improvement; Ø: no change; −: not tested
From the text: as §1

[5] = tested on: valproic acid-induced autism spectrum disorder (ASD) mouse model; test: Valproic acid-induced ASD model, bottle-brush test (irritability) (Example 6, Table P); type: in vivo; set-up: key: +: improvement; Ø: no change; −: not tested
From the text: as §1

[6] = tested on: rat model of essential tremor; test: Harmaline rat model of essential tremor, tremor plate: motion power percentage, tremor index, number of tremors, time in tremor, tremor length (Example 4); type: in vivo; set-up: key to Motion Power Percentage, significance vs harmaline + vehicle / Number of tremors, significance vs harmaline + vehicle / Total time in tremor, significance vs harmaline + vehicle / Average tremor length, significance vs harmaline + vehicle: ns = not significant; *, **, ***, **** = statistical significance at p < 0.05, 0.01, 0.001, 0.0001 respectively; *, **, ***, **** = statistical significance at p < 0.05, 0.01, 0.001, 0.0001 respectively; *, **, ***, **** = statistical significance at p < 0.05, 0.01, 0.001, 0.0001 respectively; *, **, ***, **** = statistical significance at p < 0.05, 0.01, 0.001, 0.0001 respectively; conditions: for Average tremor length, significance vs harmaline + vehicle / Number of tremors, significance vs harmaline + vehicle / Total time in tremor, significance vs harmaline + vehicle / Motion Power Percentage, significance vs harmaline + vehicle: I.P.
From the text: as §2, §3

Structure (SMILES): CC(C)NCC(O)COc1cccc2ccccc12 (centres unmarked) [Propranolol]
- deficits induced by harmaline vs vehicle/harmaline group ([1]; 20, 40 and 60 min post-harmaline): significantly attenuated
- Tremor Score (median ± IQR) ([1]; 20 mins post-harmaline): 0.0 ± 0.0
- Tremor Score (median ± IQR) ([1]; 40 mins post-harmaline): 0.0 ± 0.0
- Tremor Score (median ± IQR) ([1]; 60 mins post-harmaline): 0.0 ± 0.75

Structure (SMILES): C=C(C)[C@@H]1CCC(C)=C[C@H]1c1c(O)cc(CCCCC)cc1O [sCBD, 2-[(1R,6R)-3-Methyl-6-(1-methylethenyl)-2-cyclohexen-1-yl]-5-pentyl-1,3-benzenediol]
- Adult grooming ([2]; 9.21 mg/kg I.P.): +
- Adult marble burying ([2]; 9.21 mg/kg I.P.): Ø
- Adult open field hyperactivity (LMA on day 2) ([2]; 9.21 mg/kg I.P.): Ø
- Adult open field hyperactivity (spontaneous LMA on day 1) ([2]; 9.21 mg/kg I.P.): +
- Adult grooming ([2]; 27.63 mg/kg I.P.): +
- Adult marble burying ([2]; 27.63 mg/kg I.P.): +
- Adult open field hyperactivity (LMA on day 2) ([2]; 27.63 mg/kg I.P.): +
- Adult open field hyperactivity (spontaneous LMA on day 1) ([2]; 27.63 mg/kg I.P.): +
- Adult grooming ([2]; 92.11 mg/kg I.P.): +
- Adult marble burying ([2]; 92.11 mg/kg I.P.): +
- Adult open field hyperactivity (LMA on day 2) ([2]; 92.11 mg/kg I.P.): +
- Adult open field hyperactivity (spontaneous LMA on day 1) ([2]; 92.11 mg/kg I.P.): +
- Juvenile vocalisation ([2]; 92.11 mg/kg I.P.): +
- minimum effective dose in social behavior and after the bottle-brush test (irritability) ([2]; i.p.): 92.11 mg/kg
- Minimum dose (as CBD) decreasing the observed tremor score ([3]; DS oral and intraperitoneal, sCBD i.p.): 27 mg/kg
- Observed tremor score, significance vs harmaline + vehicle ([3]; dose 9.1 mg/kg, 20 min): ns
- Observed tremor score, significance vs harmaline + vehicle ([3]; dose 9.1 mg/kg, 40 min): ns
- Observed tremor score, significance vs harmaline + vehicle ([3]; dose 9.1 mg/kg, 60 min): ns
- Observed tremor score, significance vs harmaline + vehicle ([3]; dose 27.3 mg/kg, 20 min): ns
- Observed tremor score, significance vs harmaline + vehicle ([3]; dose 27.3 mg/kg, 40 min): * (*, **, ***, **** = statistical significance at p < 0.05, 0.01, 0.001, 0.0001 respectively)
- Observed tremor score, significance vs harmaline + vehicle ([3]; dose 27.3 mg/kg, 60 min): * (*, **, ***, **** = statistical significance at p < 0.05, 0.01, 0.001, 0.0001 respectively)
- Observed tremor score, significance vs harmaline + vehicle ([3]; dose 54.7 mg/kg, 20 min): ** (*, **, ***, **** = statistical significance at p < 0.05, 0.01, 0.001, 0.0001 respectively)
- Observed tremor score, significance vs harmaline + vehicle ([3]; dose 54.7 mg/kg, 40 min): * (*, **, ***, **** = statistical significance at p < 0.05, 0.01, 0.001, 0.0001 respectively)
- Observed tremor score, significance vs harmaline + vehicle ([3]; dose 54.7 mg/kg, 60 min): * (*, **, ***, **** = statistical significance at p < 0.05, 0.01, 0.001, 0.0001 respectively)
- Observed tremor score, significance vs harmaline + vehicle ([3]; dose 91.1 mg/kg, 20 min): * (*, **, ***, **** = statistical significance at p < 0.05, 0.01, 0.001, 0.0001 respectively)
- Observed tremor score, significance vs harmaline + vehicle ([3]; dose 91.1 mg/kg, 40 min): ns
- Observed tremor score, significance vs harmaline + vehicle ([3]; dose 91.1 mg/kg, 60 min): ns
- Adult active social behavior ([4]; 9.21 mg/kg I.P.): Ø
- Juvenile play behavior ([4]; 9.21 mg/kg I.P.): Ø
- Adult active social behavior ([4]; 27.63 mg/kg I.P.): Ø
- Juvenile play behavior ([4]; 27.63 mg/kg I.P.): Ø
- Adult active social behavior ([4]; 92.11 mg/kg I.P.): +
- Juvenile play behavior ([4]; 92.11 mg/kg I.P.): +
- Adult bottle brush irritability test ([5]; 9.21 mg/kg I.P.): Ø
- Juvenile bottle brush irritability test ([5]; 9.21 mg/kg I.P.): Ø
- Adult bottle brush irritability test ([5]; 27.63 mg/kg I.P.): Ø
- Juvenile bottle brush irritability test ([5]; 27.63 mg/kg I.P.): +
- Adult bottle brush irritability test ([5]; 92.11 mg/kg I.P.): +
- Juvenile bottle brush irritability test ([5]; 92.11 mg/kg I.P.): +
- Average tremor length, significance vs harmaline + vehicle ([6]; dose 9.1 mg/kg): ns
- Number of tremors, significance vs harmaline + vehicle ([6]; dose 9.1 mg/kg): ns
- Total time in tremor, significance vs harmaline + vehicle ([6]; dose 9.1 mg/kg): ns
- Motion Power Percentage, significance vs harmaline + vehicle ([6]; dose 9.1 mg/kg, 20 min): ns
- Motion Power Percentage, significance vs harmaline + vehicle ([6]; dose 9.1 mg/kg, 40 min): ns
- Motion Power Percentage, significance vs harmaline + vehicle ([6]; dose 9.1 mg/kg, 60 min): ns
- Average tremor length, significance vs harmaline + vehicle ([6]; dose 27.3 mg/kg): ns
- Number of tremors, significance vs harmaline + vehicle ([6]; dose 27.3 mg/kg): ns
- Total time in tremor, significance vs harmaline + vehicle ([6]; dose 27.3 mg/kg): ns
- Motion Power Percentage, significance vs harmaline + vehicle ([6]; dose 27.3 mg/kg, 20 min): ns
- Motion Power Percentage, significance vs harmaline + vehicle ([6]; dose 27.3 mg/kg, 40 min): ns
- Motion Power Percentage, significance vs harmaline + vehicle ([6]; dose 27.3 mg/kg, 60 min): ns
- Average tremor length, significance vs harmaline + vehicle ([6]; dose 54.7 mg/kg): ns
- Number of tremors, significance vs harmaline + vehicle ([6]; dose 54.7 mg/kg): ns
- Total time in tremor, significance vs harmaline + vehicle ([6]; dose 54.7 mg/kg): ns
- Motion Power Percentage, significance vs harmaline + vehicle ([6]; dose 54.7 mg/kg, 20 min): ns
- Motion Power Percentage, significance vs harmaline + vehicle ([6]; dose 54.7 mg/kg, 40 min): ns
- Motion Power Percentage, significance vs harmaline + vehicle ([6]; dose 54.7 mg/kg, 60 min): ns
- Average tremor length, significance vs harmaline + vehicle ([6]; dose 91.1 mg/kg): ns
- Number of tremors, significance vs harmaline + vehicle ([6]; dose 91.1 mg/kg): ns
- Total time in tremor, significance vs harmaline + vehicle ([6]; dose 91.1 mg/kg): ns
- Motion Power Percentage, significance vs harmaline + vehicle ([6]; dose 91.1 mg/kg, 20 min): ns
- Motion Power Percentage, significance vs harmaline + vehicle ([6]; dose 91.1 mg/kg, 40 min): ns
- Motion Power Percentage, significance vs harmaline + vehicle ([6]; dose 91.1 mg/kg, 60 min): * (*, **, ***, **** = statistical significance at p < 0.05, 0.01, 0.001, 0.0001 respectively)
- Dose (as CBD) from which MPP and TI were significantly reduced ([6]; intraperitoneal, sCBD only at one time point (60 min)): 91 mg/kg

Reference: patent US20260144805A1, “CANNABIDIOL COMPOSITIONS FOR USE IN THE TREATMENT OF NEURODEGENERATIVE AND NEUROLOGICAL DISORDERS” (JAZZ PHARMACEUTICALS RESEARCH UK LIMITED, priority 2022, published 2026)
